{"source": "patent US12371454B2", "about": "“Cyclic peptide compound having Kras inhibitory action” (priority 2019, dated 2025)", "note": "Starred links: 1 amine or outer side, 2 acyl side, 3 side chain; linkers in the order of their positions; H or OH if unused. Positions of bridges follow the written chain, without caps; N, C: chain ends. Non-standard residues stand in square brackets, D forms with d. Residues, ends and D or L forms follow the SMILES beside them. *: point of attachment. hPhe(3-Cl-4-CF3) = N[C@@H](CCc1ccc(C(F)(F)F)c(Cl)c1)C(=O)O; hPhe(3-F,4-CF3) = N[C@@H](CCc1ccc(C(F)(F)F)c(F)c1)C(=O)O; NMePhe(4-CF3) = CN[C@@H](Cc1ccc(C(F)(F)F)cc1)C(=O)O; hPhe(4-CF3) = N[C@@H](CCc1ccc(C(F)(F)F)cc1)C(=O)O; NMeTyr(3-F) = CN[C@@H](Cc1ccc(O)c(F)c1)C(=O)O; NMePhe(4-Cl) = CN[C@@H](Cc1ccc(Cl)cc1)C(=O)O; NMeNle(6-CHF2) = CN[C@@H](CCCCC(F)F)C(=O)O; NMeAla(cPent) = CN[C@@H](CC1CCCC1)C(=O)O; X84 = O=C(CN(CCc1ccncc1)[*:1])[*:2]; NMeCha = CN[C@@H](CC1CCCCC1)C(=O)O; N(isopentyl)Gly = CC(C)CCNCC(=O)O; NMeChg = CN[C@H](C(=O)O)C1CCCCC1; NMeF = CN[C@@H](Cc1ccccc1)C(=O)O; NMeI = CC[C@H](C)[C@H](NC)C(=O)O; NMeE = CN[C@@H](CCC(=O)O)C(=O)O; Gly(cPr) = N[C@H](C(=O)O)C1CC1; NMeD = CN[C@@H](CC(=O)O)C(=O)O; NMeL = CN[C@@H](CC(C)C)C(=O)O; NMeNva = CCC[C@H](NC)C(=O)O; NMeV = CN[C@H](C(=O)O)C(C)C; d(β3hA) = C[C@@H](N)CC(=O)O; Pip = O=C(O)[C@@H]1CCCCN1; NMeA = CN[C@@H](C)C(=O)O; Piperidide = C1CCN(*)CC1; Pyrrolidide = C1CCN(*)C1; Ac5c = NC1(C(=O)O)CCCC1; Aze = O=C(O)[C@@H]1CCN1; Aib = CC(C)(N)C(=O)O; Sar = CNCC(=O)O", "data": [{"molecular_target": "T1, Kras and SOS1 (biotin-tagged human Kras loaded with GDP, His-tagged human SOS1) (Homo sapiens, UniProt P01116, G12D)", "T1 construct": "made in house; host or cells: E. coli (stated for Kras only)", "T1 sequence (P01116 1-188 isoform P01116-2 G12D)": "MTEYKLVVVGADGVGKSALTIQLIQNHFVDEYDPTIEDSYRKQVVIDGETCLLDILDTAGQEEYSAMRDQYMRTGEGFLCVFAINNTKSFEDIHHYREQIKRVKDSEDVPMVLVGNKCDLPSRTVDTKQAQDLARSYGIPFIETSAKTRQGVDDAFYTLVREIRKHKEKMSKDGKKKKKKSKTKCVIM", "assay": "Protein-protein interaction inhibition between Kras and SOS1 (KrasGl2D-SOS PPI) using AlphaScreen", "assay_type": "binding", "settings": "AlphaScreen; biotin-tagged human Kras loaded with GDP, His-tagged human SOS1; read-out: KRAS G12D-SOS PPI IC50", "procedure,_shortened": "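Read-out is acceptor-bead light at 520-620 nm, arising when 680 nm-irradiated nickel donor beads pass singlet oxygen to streptavidin acceptors. The bead pair links His-tagged SOS1 with biotin-tagged, GDP-bound Kras from E. coli.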", "units": {"IC50": "µM"}, "values": [{"smiles": "CC[C@H](C)[C@@H]1NC(=O)[C@@H]2CCCCN2C(=O)C[C@@H](C)NC(=O)[C@H](C(C)C)N(C)C(=O)[C@H](Cc2ccccc2)N(C)C(=O)[C@H](CC(C)C)N(C)C(=O)[C@H](CCc2ccc(C(F)(F)F)cc2)NC(=O)CN(C)C(=O)[C@H](Cc2ccc(Cl)cc2)N(C)C(=O)CN(C)C(=O)CN(C)C1=O", "note": "[Compound 1110] (cyclo(I[Sar][Sar][NMePhe(4-Cl)][Sar][hPhe(4-CF3)][NMeL][NMeF][NMeV][d(β3hA)][Pip]))", "IC50": 0.13}, {"smiles": "CC[C@H](C)[C@@H]1NC(=O)[C@H](CC(C)C)N(C)C(=O)C[C@@H](C(=O)N2CCCCC2)N(C)C(=O)[C@H](C(C)C)N(C)C(=O)C2(CCCC2)NC(=O)[C@@H]2CCCN2C(=O)[C@H](CCc2ccc(C(F)(F)F)c(Cl)c2)NC(=O)CN(C)C(=O)[C@H](CC2CCCCC2)N(C)C(=O)[C@@H]2CCN2C(=O)[C@H](CCC(=O)NC)N(C)C1=O", "note": "[Compound 180] ([NMeL]I[NMeE](NHMe)[Aze][NMeCha][Sar][hPhe(3-Cl-4-CF3)]P[Ac5c][NMeV][NMeD]-Piperidide; lactam N-11)", "IC50": 0.011}, {"smiles": "CC[C@H](C)[C@@H]1NC(=O)[C@H](CC2CCCC2)N(C)C(=O)C[C@@H](C(=O)N2CCCC2)N(C)C(=O)[C@H]([C@@H](C)CC)N(C)C(=O)C2(CCCC2)NC(=O)[C@@H]2CCCN2C(=O)[C@H](CCc2ccc(C(F)(F)F)c(Cl)c2)NC(=O)CN(C)C(=O)[C@H](Cc2ccc(C(F)(F)F)cc2)N(C)C(=O)[C@@H]2CCN2C(=O)[C@H](C)N(C)C1=O", "note": "[Compound 1183] ([NMeAla(cPent)]I[NMeA][Aze][NMePhe(4-CF3)][Sar][hPhe(3-Cl-4-CF3)]P[Ac5c][NMeI][NMeD]-Pyrrolidide; lactam N-11)", "IC50": 0.00073}, {"smiles": "CC[C@H](C)[C@@H]1NC(=O)[C@H](CC(C)C)N(C)C(=O)C[C@@H](C(=O)N2CCCCC2)N(C)C(=O)[C@H](C2CCCCC2)N(C)C(=O)C2(CCCC2)NC(=O)[C@H](Cc2ccc(O)c(F)c2)N(C)C(=O)[C@H](CCc2ccc(C(F)(F)F)c(Cl)c2)NC(=O)CN(C)C(=O)[C@H](CC2CCCCC2)N(C)C(=O)CN(C)C(=O)CN(C)C1=O", "note": "[Compound 2170] ([NMeL]I[Sar][Sar][NMeCha][Sar][hPhe(3-Cl-4-CF3)][NMeTyr(3-F)][Ac5c][NMeChg][NMeD]-Piperidide; lactam N-11)", "IC50": 0.069}, {"smiles": "CC[C@H](C)[C@@H]1NC(=O)[C@H](CC(C)C)N(C)C(=O)C[C@@H](C(=O)N2CCCCC2)N(C)C(=O)[C@H](C2CCCCC2)N(C)C(=O)C2(CCCC2)NC(=O)CN(CCc2ccncc2)C(=O)[C@H](CCc2ccc(C(F)(F)F)c(Cl)c2)NC(=O)CN(C)C(=O)[C@H](CC2CCCCC2)N(C)C(=O)CN(C)C(=O)CN(C)C1=O", "note": "[Compound 2029] ([NMeL]I[Sar][Sar][NMeCha][Sar][hPhe(3-Cl-4-CF3)][X84][Ac5c][NMeChg][NMeD]-Piperidide; lactam N-11)", "IC50": 0.00083}, {"smiles": "CCC[C@H]1C(=O)N(C)CC(=O)N[C@@H](CCc2ccc(C(F)(F)F)c(Cl)c2)C(=O)N2CCC[C@H]2C(=O)NC2(CCCC2)C(=O)N(C)[C@@H](C2CCCCC2)C(=O)N(C)[C@H](C(=O)N2CCCCC2)CC(=O)N(C)[C@@H](CC(C)C)C(=O)N[C@@H]([C@@H](C)CC)C(=O)N(C)CC(=O)N(C)CC(=O)N1C", "note": "[Compound 187] ([NMeL]I[Sar][Sar][NMeNva][Sar][hPhe(3-Cl-4-CF3)]P[Ac5c][NMeChg][NMeD]-Piperidide; lactam N-11)", "IC50": 0.0032}, {"smiles": "CC[C@H](C)[C@@H]1NC(=O)[C@H](CC(C)C)N(C)C(=O)C[C@@H](C)NC(=O)[C@H](C(C)C)N(C)C(=O)C2(CCCC2)NC(=O)[C@@H]2CCCN2C(=O)[C@H](CCc2ccc(C(F)(F)F)c(Cl)c2)NC(=O)CN(C)C(=O)[C@H](CC2CCCCC2)N(C)C(=O)CN(CCC(C)C)C(=O)CN(C)C1=O", "note": "[Compound 801] (cyclo([Ac5c][NMeV][d(β3hA)][NMeL]I[Sar][N(isopentyl)Gly][NMeCha][Sar][hPhe(3-Cl-4-CF3)]P))", "IC50": 0.45}, {"smiles": "CC(C)C[C@H]1C(=O)N[C@@H](C2CC2)C(=O)N(C)CC(=O)N(C)CC(=O)N(C)[C@@H](CC2CCCCC2)C(=O)N(C)CC(=O)N[C@@H](CCc2ccc(C(F)(F)F)c(Cl)c2)C(=O)N2CCC[C@H]2C(=O)NC2(CCCC2)C(=O)N(C)[C@@H](C(C)C)C(=O)N(C)[C@H](C(=O)N2CCCCC2)CC(=O)N1C", "note": "[Compound 533] ([NMeL][Gly(cPr)][Sar][Sar][NMeCha][Sar][hPhe(3-Cl-4-CF3)]P[Ac5c][NMeV][NMeD]-Piperidide; lactam N-11)", "IC50": 0.0085}, {"smiles": "CC[C@H](C)[C@@H]1NC(=O)[C@H](CC(C)C)N(C)C(=O)C[C@@H](C)NC(=O)[C@H](CC(C)C)N(C)C(=O)C(C)(C)NC(=O)[C@H](CC(C)C)N(C)C(=O)[C@H](CCc2ccc(C(F)(F)F)c(F)c2)NC(=O)CN(C)C(=O)[C@H](CCCCC(F)F)N(C)C(=O)CN(C)C(=O)CN(C)C1=O", "note": "[Compound 1526] (cyclo([Aib][NMeL][d(β3hA)][NMeL]I[Sar][Sar][NMeNle(6-CHF2)][Sar][hPhe(3-F,4-CF3)][NMeL]))", "IC50": 0.1}]}]}
